Reference: patent US20060116389A1, “Antibacterial oxazolidinones” (ASTRA ZENECA AB, priority 2002, published 2006)
Converted amounts (≈) assume the structure as drawn.

What was measured:
Type in all cases: cell-based
[1] = tested on: Staphylococcus aureus MSQS (methicillin sensitive and quinolone sensitive); assay: MIC, agar-dilution, standard in-vitro test system; details: 10^4 CFU/spot, 37° C., 24 hours
Procedure: (§1) The following results were obtained on a standard in-vitro test system. The activity is described in terms of the minimum inhibitory concentration (MIC) determined by the agar-dilution technique with an inoculum size of 10^4 CFU/spot. Typically, compounds are active in the range 0.01 to 256 μg/ml.
(§2) Staphylococci were tested on agar, using an inoculum of 10^4 CFU/spot and an incubation temperature of 37° C. for 24 hours—standard test conditions for the expression of methicillin resistance.

[2] = tested on: Staphylococcus aureus MRQR (methicillin resistant and quinolone resistant); assay: MIC, agar-dilution, standard in-vitro test system; details: 10^4 CFU/spot, 37° C., 24 hours
Procedure: as §1, §2

[3] = tested on: Enterococcus faecium; assay: MIC, agar supplemented with 5% defibrinated horse blood; details: agar + 5% horse blood, 10^4 CFU/spot, 37° C., 5% carbon dioxide, 48 hours
Procedure: as §1
(§3) Streptococci and enterococci were tested on agar supplemented with 5% defibrinated horse blood, an inoculum of 10^4 CFU/spot and an incubation temperature of 37° C. in an atmosphere of 5% carbon dioxide for 48 hours—blood is required for the growth of some of the test organisms. Fastidious Gram negative organisms were tested in Mueller-Hinton broth, supplemented with hemin and NAD, grown aerobically for 24 hours at 37° C., and with an innoculum of 5×10^4 CFU/well.

[4] = tested on: Linezolid Resistant Streptococcus pneumoniae; assay: as above; details: agar + 5% horse blood, 48 hours
Procedure: as §1, §3

[5] = tested on: Streptococcus pneumoniae; assay: as above; details: agar + 5% horse blood, 10^4 CFU/spot, 37° C., 5% carbon dioxide, 48 hours
Procedure: as §1, §3

[6] = tested on: Haemophilus influenzae; assay: MIC, Mueller-Hinton broth supplemented with hemin and NAD; details: 24 hours, 37° C., 5×10^4 CFU/well
Procedure: as §1, §3

[7] = tested on: Moraxella catarrhalis; assay: as above; details: 24 hours, 37° C., 5×10^4 CFU/well
Procedure: as §1, §3

MIC [1]: 0.5 µg/mL (≈ 1.15 µM)
MIC [2]: 0.5 µg/mL (≈ 1.15 µM)
MIC [3]: 0.5 µg/mL
MIC [4]: 2 µg/mL
MIC [5]: 0.13 µg/mL
MIC [6]: 64 µg/mL (≈ 147 µM)
MIC [7]: 0.5 µg/mL (≈ 1.15 µM)
Compound: Cn1nnc(-c2ccc(-c3ccc(N4C[C@H](CNc5ccon5)OC4=O)cc3F)cn2)n1 [Example 2]
